The values below come from article PMC3486420, “In Vitro and In Vivo Characterizations of Chiglitazar, a Newly Identified PPAR Pan-Agonist” (PPAR Research, 2012).

One assay concerns Wistar obese rats. Also on record: method as in PMID 16751799. Particulars: Wistar obese rats treated for 9–40 days ref 18; cited from earlier work.
Another assay deals with T1, PPARδ (Homo sapiens, UniProt Q03181).
T1 construct: expressed in transfected cells; host or cells: SMMC-7721 or U2OS
T1 sequence (Q03181 1-441): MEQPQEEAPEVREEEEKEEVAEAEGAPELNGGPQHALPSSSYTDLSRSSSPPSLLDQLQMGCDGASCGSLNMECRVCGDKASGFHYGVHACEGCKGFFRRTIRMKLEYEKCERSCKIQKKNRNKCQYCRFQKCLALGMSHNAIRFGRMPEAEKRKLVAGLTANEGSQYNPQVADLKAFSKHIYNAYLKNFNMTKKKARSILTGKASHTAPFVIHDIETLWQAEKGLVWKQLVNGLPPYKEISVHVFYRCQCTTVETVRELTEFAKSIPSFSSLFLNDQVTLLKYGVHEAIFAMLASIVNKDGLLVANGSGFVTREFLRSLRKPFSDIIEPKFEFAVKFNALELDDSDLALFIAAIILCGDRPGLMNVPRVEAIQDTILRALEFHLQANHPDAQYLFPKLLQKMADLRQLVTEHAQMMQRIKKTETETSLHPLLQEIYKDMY
T1 sequence (P19793 1-462 partner): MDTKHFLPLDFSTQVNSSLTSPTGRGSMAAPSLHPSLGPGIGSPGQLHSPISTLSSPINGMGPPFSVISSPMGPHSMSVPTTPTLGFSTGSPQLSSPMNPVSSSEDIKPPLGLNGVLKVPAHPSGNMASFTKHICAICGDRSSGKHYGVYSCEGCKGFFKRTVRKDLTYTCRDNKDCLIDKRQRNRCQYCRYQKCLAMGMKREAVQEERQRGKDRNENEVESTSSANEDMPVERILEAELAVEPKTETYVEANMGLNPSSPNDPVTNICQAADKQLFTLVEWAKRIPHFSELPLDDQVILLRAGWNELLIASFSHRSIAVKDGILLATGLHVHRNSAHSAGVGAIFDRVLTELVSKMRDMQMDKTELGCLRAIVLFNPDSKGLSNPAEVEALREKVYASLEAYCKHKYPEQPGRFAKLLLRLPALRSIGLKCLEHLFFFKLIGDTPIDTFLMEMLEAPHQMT
The experiment in a line: PPARδ transactivation reporter gene assay in SMMC-7721 cells. Format: cell-based. The conditions noted are these: SMMC-7721 cells.

The target of assay [1] is T2, PPARα (Homo sapiens, UniProt Q07869).
T2 sequence (Q07869 1-468): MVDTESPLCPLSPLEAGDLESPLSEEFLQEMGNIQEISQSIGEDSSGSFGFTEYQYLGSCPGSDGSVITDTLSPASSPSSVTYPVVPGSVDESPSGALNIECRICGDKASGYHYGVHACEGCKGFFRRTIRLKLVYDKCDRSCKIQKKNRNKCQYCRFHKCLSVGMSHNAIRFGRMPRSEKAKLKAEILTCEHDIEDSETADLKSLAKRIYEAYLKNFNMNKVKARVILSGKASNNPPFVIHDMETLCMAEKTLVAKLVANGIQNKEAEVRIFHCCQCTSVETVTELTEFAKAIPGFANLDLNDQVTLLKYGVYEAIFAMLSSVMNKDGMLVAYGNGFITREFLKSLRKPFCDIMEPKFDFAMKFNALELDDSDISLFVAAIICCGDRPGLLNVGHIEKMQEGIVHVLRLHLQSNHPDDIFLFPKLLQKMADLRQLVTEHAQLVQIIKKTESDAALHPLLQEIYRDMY
T2 sequence (P19793 1-462 partner): T1 sequence (P19793 1-462 partner)
Description: PPARα transactivation reporter gene assay in SMMC-7721 cells. Format: cell-based.

The test system of another assay is C2C12 cells. The experiment in a line: Gene expression by RT-PCR in C2C12 cells. The conditions noted are these: 48 h, 10 μM chiglitazar, 50 μM WY14643, 5 μM 2-Bro, compared with rosiglitazone 10 μM. Format: cell-based, mouse. An excerpt:
cDNAs for human retinoid X receptor (hRXR), PPARα, PPARγ, and PPARδ were obtained by reverse transcriptase polymerase chain reaction (RT-PCR) from human liver or adipose tissues. Amplified cDNAs were cloned into pcDNA3.1 expression vector (Invitrogen, Carlsbad, CA, USA). The integrity and fidelity of all constructs made were verified by DNA sequencing. Luciferase reporter plasmids, ACOX promoter for PPARγ and pHD(X3)-luc for PPARα, were kind gifts of Drs. TM McIntyre (University of Utah, USA) and RA Rachubinski (University of Alberta, Canada), respectively. PPRE-luc for PPARδ was constructed based on the previous report by insertion of the annealed oligonucleotides having four copies of the CYP4A6 PPRE (4 × […]) into the upstream of the luciferase coding sequence in pGL3-promoter vector (Promega, Madison, WI, USA). pCMVβGal was purchased from Clontech (Palo Alto, CA, USA). The mouse 3T3-L1 preadipocyte cell line, skeletal muscle C2C12 cell line, and macrophage RAW267.4 cell line and the human osteosarcoma U2OS cell line were obtained from the American Type Culture Collection (ATCC, Rockville, MD, USA). The human hepatoma SMMC-7721 cell line was obtained from the Cell Culture Center of Chinese Academy of Medical Sciences (Beijing, China). Cell lines were cultured in medium of DMEM (3T3-L1, C2C12, and SMMC-7721), RPMI 1640 (RAW267.4), or McCoy's 5A (U2OS), containing 10% fetal bovine serum (FBS), 50 μg/mL streptomycin, and 50 units/mL penicillin at 37°C in a humidified incubator with 5% CO2.
Total RNA was extracted from cells or tissues with an RNeasy minikit (Qiagen, Valencia, CA, USA). The first-strand cDNA was synthesized using the oligo(dT) primers, followed by using SuperScript II reverse transcriptase (Invitrogen) according to the manufacturer's instructions. […] PCR products were analyzed by electrophoresis on a 1.5% agarose gel stained with ethidium bromide. […]

Assay [2] deals with T2, PPARα. The experiment in a line: PPARα transactivation reporter gene assay in U2OS cells. Format: cell-based.
Setting [3] is: 24 h treatment, luciferase reporter, hRXR cotransfected, ia: inactive at 10 μM.
The mark [4] stands for this setting: max response compared with WY at 50 μM.

Structures are written as SMILES.

`O=C(c1ccc(F)cc1)c1ccccc1NC(Cc1ccc(OCCn2c3ccccc3c3ccccc32)cc1)C(=O)O` (centres unmarked) [Chi, 2-[(2-(4-fluorobenzoyl)phenyl)amino]-3-[4-(2-carbazolylethoxy)-phenyl]-propionic acid]: the Optimal efficacy dose with Wistar obese rats is 10 mg/kg. Also, the EC50 on PPARδ (24 h treatment, luciferase reporter, hRXR cotransfected, ia: inactive at 10 μM, read-out: PPARδ EC50) turned out to be 1700 ± 400 nM; on PPARα [1] (setting [3]), 1100 ± 300 nM; on PPARα [2] (setting [3]), 1200 ± 300 nM. Moreover, on PPARδ (max response compared with 2-Bro at 10 μM), the “PPARδ % Max” value is given as 123%. For the same molecule, the results for the “PPARα % Max” value on PPARα [1] (setting [4]) and at PPARα [2] (setting [4]) were 142% and 147%, respectively. Further, the “Expression of PPARα and/or PPARδ downstream genes CPT-1a and CPT-1b” value in the assay on C2C12 cells is “more significantly upregulated”.
